Consider 1 molecule from publication PMC6882900, “Pharmacokinetics of Micafungin in Critically Ill Patients” (Scientific Reports, 2019).

In brackets after ≈: the same amount, converted by molar mass. Numbered stars: 1 amine (or outer) side, 2 acyl side, 3 side chain; on linkers, the order of the positions; unused ones are H or OH. Bridge positions count the residues as written; N and C are the ends. Square brackets hold non-standard residues; d marks the D form. Peptide text beside a SMILES is read from it. * marks the point of attachment. hTyr(3S-OH,4S-OH,3'-OSO3H) = N[C@H](C(=O)O)[C@H](O)[C@@H](O)c1ccc(O)c(OS(=O)(=O)O)c1; Orn(4R-OH,5R-OH) = O=C([C@H](C[C@@H](O)[C@@H](O)N[*:3])N[*:1])[*:2]; Pro(3S-OH,4S-Me) = C[C@H]1CN[C@H](C(=O)O)[C@H]1O; X1 = CCCCCOc1ccc(-c2cc(-c3ccc(C(=O)*)cc3)no2)cc1; Gln(3R-OH) = NC(=O)C[C@@H](O)[C@H](N)C(=O)O; Hyp = O=C(O)[C@@H]1C[C@@H](O)CN1

What is called clearance is a measure of how efficiently the substance is removed, as volume per time.

A short description of series [1]: Population pharmacokinetic modelling of micafungin in critically ill patients (NONMEM, plasma samples). In kind it is in vivo, human. An excerpt:
This is a non-interventional study conducted in critically ill adult patients treated in the intensive care units of the Department of Anaesthesiology, Intensive Care Medicine and Pain Therapy of the University Hospital Muenster in Germany. The collection of data and blood samples was approved by the ethics committee of the University of Muenster (Study Code 06-AnIt-11). […] Written informed consent was obtained from all patients or their representatives.
The study included 36 adult patients. Patient demographics and other clinical parameters were collected from the electronic patient charts of the intensive care unit. All patients received 100 mg micafungin intravenously once daily either as empiric or targeted therapy of suspected or proven infection. The decision to begin or end therapy was made by the physicians in charge of the intensive care units irrespective of the pharmacologic study.
Blood samples were collected from indwelling arterial catheters for analysis of micafungin concentrations. On day 1, plasma micafungin concentration was determined at 1, 4, 8, 12, 16 and 20 hours post application and as a trough level immediately before the next dose of micafungin after 24 hours. From day two of therapy, peak levels one hour after infusion and trough levels were collected.
Blood samples were exclusively taken from arterial lines into ethylenediaminetetraacetic acid (EDTA)-containing sample vials tubes (S-Monovette® 2.7 ml K3E, Sarstedt, Nümbrecht, Germany). Samples were immediately transported to the in-house laboratory and plasma was separated by centrifugation at 1600 x g (10 min) and kept and frozen at −80 °C until analysis.
Micafungin in human plasma was analyzed with reversed-phase high-performance liquid chromatography. 200 µl serum, 20 µl internal standard solution (anidulafungin 1 mg/ml in water), 20 µl 30% ZnSO4 x7H2O (w/v) in water and 700 µl methanol were vortex-mixed (5 sec) followed by centrifugation at 800 g for 3 min. 50 µl of the supernatant was injected on a 125 liquid chromatograph (Beckman Coulter GmbH, Krefeld, Germany) interfaced with a model 168 diode array detector. Chromatographic conditions: mobile phase: acetonitrile/50 mM ammonium acetate buffer pH 4.6, 50:50 (v/v); flow rate 1 ml/min at 45 °C; absorbance detection 271 nm; column: XTerra RP18, 3.5 µm, 150 × 4.6 mm (Waters GmbH, Eschborn, Germany).
Model building was performed using NONMEM (Version 7.3; ICON Development Solutions, Ellicott City, MD) with the ADVAN 6 subroutine and the FOCE + I estimation method. Visual predictive checks (pcVPC) and stepwise covariate model building (SCM) were performed with the PsN module (Version 4.6.0)[25]. Graphical output was created in R (version 3.4.0; R foundation for statistical computing, Vienna, Austria) with additional use of the Xpose package (version 4.5.3)[26].
The basic structural model was tested with the following compositions: One to three compartments with linear clearance, nonlinear (Michaelis Menten) clearance and a combination of both were tested.
As categorical covariate, sex was tested. Covariate influence was tested on central and peripheral volumes of distribution, and clearance. Covariate testing was performed using stepwise covariate modelling (SCM) in PsN with a 5% forward inclusion and 1% backward elimination criterion.

The subject of series [2] is C. albicans. Briefly: Pharmacodynamic target evaluation (AUC/MIC) in the study population. In kind it is in vivo, Candida albicans. The settings on record: fixed dose 100 mg once daily, post-hoc AUC 0-24 h per patient and day. An excerpt: (§1) The European Committee on Antimicrobial Susceptibility Testing (EUCAST) established the guideline for micafungin and Candida ssp. with species related clinical breakpoints for non-resistant strains. These breakpoints were used as surrogate for the minimal inhibitory concentration (MIC) for C. albicans, C. glabrata and C. parapsilosis. Proposed MICs are […], respectively.
(§2) Using the previously established population pharmacokinetic model, the AUC for each patient on each day of therapy was determined.

Series [3] deals with C. glabrata. Described as above. The settings on record: fixed dose 100 mg once daily, post-hoc AUC 0-24 h per patient and day. The format is in vivo, Candida glabrata.
Description: as §1, §2

For series [4], the system named is C. parapsilosis. Described as above. The format is in vivo, Candida parapsilosis. Conditions: fixed dose 100 mg once daily, post-hoc AUC 0-24 h per patient and day.
Description: as §1, §2

Series [5] deals with C. albicans. Conditions: non-resistant strains; cited from earlier work.
Description: as §1

The test system of series [6] is C. parapsilosis. Conditions: non-resistant strains; cited from earlier work.
Description: as §1

In series [7] the test system is C. albicans. Details: method as in EUCAST. The settings on record: ref EUCAST; cited from earlier work.
Series [8] concerns C. glabrata. Also on record: method as in EUCAST. The settings on record: ref EUCAST; cited from earlier work.
The subject of series [9] is C. parapsilosis. Details: method as in EUCAST. Conditions: ref EUCAST; cited from earlier work.
For series [10] the following is noted: cited from earlier work. On the procedure:
(§3) Micafungin has a small volume of distribution (~119 ml/kg) and the drug is highly protein bound (>99%). The primary binding protein is albumin. […] The pharmacokinetics and pharmacodynamics of micaf ...

The next series relates to albumin. Conditions: primary binding protein is albumin; cited from earlier work. On the procedure:
as §3

Setting [11] is: final population PK model estimate, 36 critically ill adult patients, 100 mg i.v. once daily.

For `CCCCCOc1ccc(-c2cc(-c3ccc(C(=O)N[C@H]4C[C@@H](O)[C@@H](O)NC(=O)[C@@H]5[C@@H](O)[C@@H](C)CN5C(=O)[C@H]([C@H](O)CC(N)=O)NC(=O)[C@H]([C@H](O)[C@@H](O)c5ccc(O)c(OS(=O)(=O)O)c5)NC(=O)[C@@H]5C[C@@H](O)CN5C(=O)[C@H]([C@@H](C)O)NC4=O)cc3)no2)cc1` [micafungin] (X1-[Orn(4R-OH,5R-OH)]T[Hyp][hTyr(3S-OH,4S-OH,3'-OSO3H)][Gln(3R-OH)][Pro(3S-OH,4S-Me)]; lactam 1-C), the “Influence of renal replacement therapy on pharmacokinetics” value in series [1] (CVVHDF, SLEDD, clearance and volumes of distribution) was “did not alter the pharmacokinetics”. Also, the “Lower central volume of distribution in patients with SOFA >10” value in series [1] (categorical covariate effect, SOFA >10 vs less critically ill patients) is 30.8%. The “Lower clearance in patients with bilirubin >4 mg/dl” value in [1] (categorical covariate effect, bilirubin >4 mg/dl) is listed as 21.1%. In addition, in [1] (setting [11]), the “Central volume of distribution” value is recorded as 16.2 L. Further, the Inter-compartmental clearance in [1] (setting [11]) is listed as 14.4 L/h. In addition, in [1] (setting [11]), the “Peripheral volume of distribution” value is reported as 13.8 L. The clearance in [1] (human, iv, final population PK model estimate (two compartments, linear elimination), 36 critically ill adult patients, 100 mg i.v. once daily, plasma, HPLC-UV) is 26 mL/min. The “Accumulation of micafungin in plasma” value in series [1] (up to 10 days of treatment, 100 mg i.v. once daily) is recorded as “No accumulation”. Further, the “Adequacy of AUC/MIC ratio against EUCAST breakpoint” value is listed as “adequate therapy intensities” in the series with C. albicans [2], “adequate therapy intensities” with C. glabrata [3] and “does not seem suitable” in the series on C. parapsilosis [4]. In addition, the “MIC (EUCAST breakpoint as surrogate)” value in the series with C. albicans [5] is 16 µg/mL (≈ 12.6 µM); with C. parapsilosis [6] it was 2000 µg/mL (≈ 1570 µM). The “AUC/MIC target to reach stasis” value in the series on C. albicans [7] is 2420; in the series with C. glabrata [8], 1283; in the series on C. parapsilosis [9], 285. Also, the Volume of distribution in [10] is recorded as ~ 119 ml/kg. Also, the Linearity of pharmacokinetics entry in [10] (daily doses between 12.5 mg and 200 mg as well as 3 mg/kg and 8 mg/kg) is reported as “Linear pharmacokinetics”. Moreover, the Protein bound with albumin is given as greater than 99%.
